According to US10995064B2, “Sulfamoyl-arylamides and the use thereof as medicaments for the treatment of hepatitis B” (priority 2012, dated 2021):

Key:
[1] = test system: HBV; test: anti HBV activity, HepG2.117 inducible (Tet-off) cell line, intracellular HBV DNA by realtime PCR; type: cell-based; details: HepG2.117 cells, 3 days of treatment
[2] = test system: HBV; test: anti-HBV activity, HepG2.2.15 stable transfected cell line, HBV DNA from secreted virions by realtime PCR; type: cell-based; details: HepG2.2.15 cells, 6 days of treatment, secreted virion HBV DNA
[3] = test system: HepG2 cells; test: Cytotoxicity in HepG2 cells, 4 days, Resazurin assay; details: read-out: HepG2 4 days CC50, 4 days, Resazurin
[4] = test system: HepG2 cells; test: Cytotoxicity in HepG2 cells using CellTiter-Blue; type: cell-based; details: 6 days
[5] = Cytotoxicity in HepG2 cells, 4 days, Resazurin assay; details: human

COC(=O)N1CCCC(NS(=O)(=O)c2cccc(C(=O)Nc3ccc(F)c(C)c3)c2)C1 (racemic) [Compound 159]
EC50 ([1]; Hepatitis B virus, 72 h): 300 nM

COC(=O)N1CCCC(NS(=O)(=O)c2cccc(C(=O)Nc3ccc(F)c(C)c3)c2)C1 (racemic) [Compound 159a]
EC50 [1]: 860 nM | EC50 [2]: 170 nM

COC(=O)N1CCCC(NS(=O)(=O)c2cccc(C(=O)Nc3ccc(F)c(C)c3)c2)C1 (racemic) [Compound 159b]
EC50 [1]: 230 nM | EC50 [2]: 160 nM

Cc1cc(NC(=O)c2cccc(S(=O)(=O)NC3CC(=O)N(C)C3)c2)ccc1F (racemic) [Compound 179]
EC50 ([1]; Hepatitis B virus, 72 h): 440 nM | EC50 ([2]; Hepatitis B virus, 144 h): 210 nM

Cc1cc(NC(=O)c2cccc(S(=O)(=O)NC3CC(=O)N(C)C3)c2)ccc1F (racemic) [Compound 179a]
EC50 [1]: 250 nM | EC50 [2]: 380 nM | CC50 [3]: > 25000 nM

Cc1cc(NC(=O)c2cccc(S(=O)(=O)NC3CC(=O)N(C)C3)c2)ccc1F (racemic) [Compound 179b]
EC50 [1]: 1840 nM | EC50 [2]: 1110 nM | CC50 [3]: > 25000 nM

Cc1cc(NC(=O)c2cccc(S(=O)(=O)N[C@@H]3CCC[C@H](O)C3)c2)ccc1F (single isomer, unassigned) [Compound 134b, N-(4-fluoro-3-methyl-phenyl)-3-[[(1R,3S)-3-hydroxycyclohexyl]sulfamoyl]benzamide or N-(4-fluoro-3-methyl-phenyl)-3-[[(1S,3R)-3-hydroxycyclohexyl]sulfamoyl]benzamide]
EC50 [1]: 200 nM

Cc1cc(NC(=O)c2cccc(S(=O)(=O)N[C@H]3Cc4ccccc4[C@@H]3O)c2)ccc1F (single isomer, unassigned) [Compound 141a, N-(4-fluoro-3-methyl-phenyl)-3-[[(1S,2S)-1-hydroxyindan-2-yl]-sulfamoyl]benzamide or N-(4-fluoro-3-methyl-phenyl)-3-[[(1R,2R)-1-hydroxyindan-2-yl]sulfamoyl]benzamide]
EC50 [2]: 700 nM | CC50 [3]: > 25000 nM

Cc1cc(NC(=O)c2cccc(S(=O)(=O)N[C@H]3Cc4ccccc4[C@H]3O)c2)ccc1F (single isomer, unassigned) [Compound 141b, N-(4-fluoro-3-methyl-phenyl)-3-[[(1R,2S)-1-hydroxyindan-2-yl]sulfamoyl]benzamide or N-(4-fluoro-3-methyl-phenyl)-3-[[(1S,2R)-1-hydroxyindan-2-yl]sulfamoyl]benzamide]
CC50 [3]: > 25000 nM

Cc1cc(NC(=O)c2cccc(S(=O)(=O)N[C@@H]3CC[C@H](O)C3)c2)ccc1F (single isomer, unassigned) [Compound 145a, N-(4-fluoro-3-methyl-phenyl)-3-[[(1R,3S)-3-hydroxycyclopentyl]sulfamoyl]benzamide or N-(4-fluoro-3-methyl-phenyl)-3-[[(1S,3R)-3-hydroxycyclopentyl]sulfamoyl]benzamide]
CC50 [3]: > 25000 nM

Cc1cc(NC(=O)c2cccc(S(=O)(=O)N[C@H]3CC[C@H](O)C3)c2)ccc1F (single isomer, unassigned) [Compound 145c, N-(4-fluoro-3-methyl-phenyl)-3-[[(1S,3S)-3-hydroxycyclopentyl]-sulfamoyl]benzamide or N-(4-fluoro-3-methyl-phenyl)-3-[[(1R,3R)-3-hydroxycyclopentyl]sulfamoyl]benzamide]
CC50 [3]: > 25000 nM

Cc1cc(NC(=O)c2cccc(S(=O)(=O)N[C@H]3CC[C@H](O)C3)c2)ccc1F (single isomer, unassigned) [Compound 145d, N-(4-fluoro-3-methyl-phenyl)-3-[[(1S,3S)-3-hydroxycyclopentyl]-sulfamoyl]benzamide or N-(4-fluoro-3-methyl-phenyl)-3-[[(1R,3R)-3-hydroxycyclopentyl]sulfamoyl]benzamide]
EC50 [2]: 400 nM

CC1(NS(=O)(=O)c2cccc(C(=O)Nc3ccc(F)cc3)c2)COC1 [Compound 4]
EC50 ([1]; Hepatitis B virus, 72 h): 930 nM | EC50 ([2]; Hepatitis B virus, 144 h): 960 nM | CC50 [3]: > 100000 nM

O=C(Nc1ccccc1)c1cc(S(=O)(=O)N2CCCCC2)c(Cl)cc1Cl [Compound 20]
CC50 [3]: 79600 nM

Cc1ccccc1NC(=O)c1cccc(S(=O)(=O)NC2CCCCC2)c1 [Compound 34]
EC50 ([2]; Hepatitis B virus, 144 h): 4180 nM | CC50 [4]: > 25000 nM

O=C(Nc1ccc(F)cc1)c1cc(S(=O)(=O)N2CCCCC2)cs1 [Compound 61]
CC50 [3]: 35700 nM

CC1(NS(=O)(=O)c2cccc(C(=O)Nc3ccc(F)cc3)c2)CCOCC1 [Compound 83]
CC50 at 4 days [5]: > 25000 nM

Cc1cc(NC(=O)c2cccc(S(=O)(=O)NC3CCCC(O)C3)c2)ccc1F (centres unmarked) [Compound 134]
EC50 ([2]; Hepatitis B virus, 144 h): 180 nM
